The subject of series [1] is MCF7. Description: Cytotoxicity against human MCF7 cells assessed as inhibition of cell growth at 30 uM incubated for 48 hrs by MTT assay relative to control. It is filed as functional.
Series [2] deals with PANC-1. Description: Cytotoxicity against human PANC-1 cells assessed as inhibition of cell growth at 30 uM incubated for 48 hrs by MTT assay relative to control. The series is classed as functional. For orientation: Tetrazolium assays rely on reduction of a dye to a coloured formazan, in cell work by metabolically active cells.
Series [3] deals with MCF7. Put plainly: Cytotoxicity against human MCF7 cells assessed as inhibition of cell growth incubated for 48 hrs by MTT assay. It is filed as functional, cell-based. The settings on record: MCF7, 48 h.
The test system of series [4] is MDA-MB-231. Description: Cytotoxicity against human MDA-MB-231 cells assessed as inhibition of cell growth incubated for 48 hrs by MTT assay. It is filed as functional, cell-based. Conditions: MDA-MB-231, 48 h.
Series [5] relates to HT-29. Description: Cytotoxicity against human HT-29 cells assessed as inhibition of cell growth incubated for 48 hrs by MTT assay. It is filed as functional, cell-based. Conditions: HT-29, 48 h.
The subject of series [6] is DU-145. Put plainly: Cytotoxicity against human DU-145 cells assessed as inhibition of cell growth incubated for 48 hrs by MTT assay. The series is classed as functional, cell-based. The settings on record: DU-145, 48 h.
Series [7] deals with U-937. Put plainly: Cytotoxicity against human U-937 cells assessed as inhibition of cell growth incubated for 48 hrs by MTT assay. The settings on record: U-937, 48 h. It is filed as functional, cell-based.
In series [8] the test system is A549. Put plainly: Cytotoxicity against human A549 cells assessed as inhibition of cell growth incubated for 48 hrs by MTT assay. The series is classed as functional, cell-based. The settings on record: A549, 48 h.
Series [9] deals with PANC-1. Put plainly: Cytotoxicity against human PANC-1 cells assessed as inhibition of cell growth incubated for 48 hrs by MTT assay. It is filed as functional, cell-based. The settings on record: PANC-1, 48 h.
Series [10] is described as follows: Cytotoxicity against CHO-K1 cells assessed as inhibition of cell growth incubated for 48 hrs by MTT assay. The series is classed as toxicity, cell-based, Cricetulus griseus. The settings on record: Chinese hamster.
Series [11] in a line: Cytotoxicity against HEK293 cells assessed as inhibition of cell growth incubated for 48 hrs by MTT assay. The series is classed as toxicity, cell-based. Conditions: human.

Our source for the inhibition and IC50 values is ChEMBL document CHEMBL5360540, “Antitumor effect of 3-(quinolin-2-ylmethylene)-4,6-dimethyl-5-hydroxy-7-azaoxindole down-regulating the Gas6-Axl axis” (Eur J Med Chem, 2023).

A value given as a limit tells only on which side of the number the result lay.

By inhibition is commonly meant the change of the read-out against control, counted positive when it falls. `Cc1nc2c(c(C)c1O)/C(=C/c1c[nH]c3ccccc13)C(=O)N2`: the results for the inhibition at 30 µM in series [1] and in series [2] were 2.4% and 17.1%, respectively.
Take `Cc1ccc(/C=C2\C(=O)Nc3nc(C)c(O)c(C)c32)cc1`: the inhibition at 30 µM in series [1] is 32.3%; in series [2], 29.2%.
Broadly, the IC50 is the concentration needed to halve the response being measured. With `COc1ccc(OC)c(/C=C2\C(=O)Nc3nc(C)c(O)c(C)c32)c1`, the results for the inhibition at 30 µM in series [1] and in series [2] were 67.5% and 69.3%, respectively. Moreover, the IC50 was determined as 20.9 µM in series [3]; 22.9 µM in series [4]; 16.6 µM in series [5]; 5.6 µM in [6]; 33 µM in series [7]; 47.5 µM in series [8]. Moreover, in series [9], the IC50 was 19.5 µM. The results for the IC50 at 48 h in [10] and in [11] were 47.5 µM and 11 µM, respectively.
Turning to `COc1ccc(/C=C2\C(=O)Nc3nc(C)c(O)c(C)c32)cc1`, the inhibition at 30 µM in series [1] was determined as 23.9%; in series [2], 36.4%.
The matching figures for `Cc1cc(C)c(/C=C2\C(=O)Nc3nc(C)c(O)c(C)c32)[nH]1`: 47.3% and 44.8%.
Regarding `COc1cccc(/C=C2\C(=O)Nc3nc(C)c(O)c(C)c32)c1`, the inhibition at 30 µM was found to be 29.6% in [1] and 46.5% in [2].
The matching figures for `Cc1nc2c(c(C)c1O)/C(=C/c1ccccc1O)C(=O)N2`: 29.2% and 42.1%.
The matching figures for `Cc1nc2c(c(C)c1O)/C(=C/C1CCCCC1)C(=O)N2`: 10% and 49.1%.
Take `CCCCC/C=C1\C(=O)Nc2nc(C)c(O)c(C)c21`: the inhibition at 30 µM in series [1] amounted to 76.9%; in series [2], 77.5%. The IC50 in [3] is 13.9 µM; in series [4], 12.6 µM; in [5], 12.9 µM; in series [6], 11 µM; in [7], 11.5 µM; in series [8], 7.6 µM. The IC50 in [9] was 8.1 µM. Also, the figures for the IC50 at 48 h in series [10] and in series [11] were 20.9 µM and 6.1 µM, respectively.
On to `Cc1nc2c(c(C)c1O)/C(=C/c1ccc3ccccc3c1)C(=O)N2`, for which the values for the inhibition at 30 µM in series [1] and in series [2] were 30.5% and 29%, respectively.
Regarding `CCC(/C=C1\C(=O)Nc2nc(C)c(O)c(C)c21)CC`, the figures for the inhibition at 30 µM in series [1] and in series [2] were 30.5% and 45%, respectively.
In the same order, the values of `Cc1nc2c(c(C)c1O)/C(=C/c1ccccn1)C(=O)N2` are 28.1% and 29.3%.
With `Cc1nc2c(c(C)c1O)/C(=C/c1ncc[nH]1)C(=O)N2`, the inhibition at 30 µM in series [1] is 2.6%; in series [2], 7.2%.
The matching figures for `Cc1nc2c(c(C)c1O)/C(=C/c1cccs1)C(=O)N2`: 57.8% and 42.3%.
`Cc1nc2c(c(C)c1O)/C(=C/c1ccco1)C(=O)N2`: the inhibition at 30 µM amounted to 31.5% in series [1] and 16.4% in series [2].
The matching figures for `Cc1nc2c(c(C)c1O)/C(=C/c1ccccc1[N+](=O)[O-])C(=O)N2`: 23.9% and 27.9%.
The matching figures for `Cc1nc2c(c(C)c1O)/C(=C/c1ccc[nH]1)C(=O)N2`: 27% and 16.9%.
Regarding `COc1ccc(Br)cc1/C=C1\C(=O)Nc2nc(C)c(O)c(C)c21`, the inhibition at 30 µM in [1] was 74.7%; in [2], 71.8%. Further, the IC50 in [3] came to 11 µM; in [4], 10.5 µM; in series [5], 25.1 µM; in series [6] it was 4.6 µM; in series [7], 12.6 µM; in series [8], 10.1 µM. Moreover, in series [9], the IC50 is 6.4 µM. Also, the IC50 at 48 h in series [10] turned out to be 30.1 µM; in series [11] it was 19.5 µM.
On to `COc1cc(/C=C/C=C2\C(=O)Nc3nc(C)c(O)c(C)c32)ccc1O`, for which the inhibition at 30 µM is 6.9% in [1] and 24.5% in series [2].
With `Cc1nc2c(c(C)c1O)/C(=C/c1ccncc1)C(=O)N2`, the inhibition at 30 µM stood at 63.2% in [1] and 65.5% in [2]. The IC50 is 19.1 µM in series [3]; greater than 90 µM in series [4]; 30.1 µM in [5]; 30.8 µM in series [6]; 34.5 µM in series [7]; 30.1 µM in series [8]. In [9], the IC50 is 19.1 µM. Besides, the IC50 at 48 h in series [10] was 57 µM; in series [11], greater than 90 µM.
For the compound `Cc1nc2c(c(C)c1O)/C(=C/c1nccs1)C(=O)N2`, the inhibition at 30 µM in series [1] is 5.6%; in series [2], 9%.
In the case of `Cc1nc2c(c(C)c1O)/C(=C/C(c1ccccc1)c1ccccc1)C(=O)N2`, the inhibition at 30 µM in series [1] was 78.1%; in series [2], 81.5%. The IC50 in [3] was found to be 6.4 µM; in [4], 22.9 µM; in [5], 11.5 µM; in series [6], 8.8 µM; in series [7] it was 16.6 µM; in [8] it was 31.5 µM. In series [9], the IC50 was determined as 7.4 µM. Besides, the 50% inhibitory concentration (IC50) at 48 h in series [10] amounted to 30.1 µM; in series [11] it was 37.8 µM.
`Cc1nc2c(c(C)c1O)/C(=C/c1ccc(F)cc1)C(=O)N2`: the figures for the inhibition at 30 µM in [1] and in series [2] were 48.3% and 51.9%, respectively.
In the same order, the values of `Cc1ccc(/C=C2\C(=O)Nc3nc(C)c(O)c(C)c32)s1` are 53.4% and 30.2%.
The matching figures for `Cc1nc2c(c(C)c1O)/C(=C/c1cnc[nH]1)C(=O)N2`: 4.1% and 4.5%.
The matching figures for `Cc1nc2c(c(C)c1O)/C(=C/c1ccc([N+](=O)[O-])cc1)C(=O)N2`: 16.3% and 32.6%.
Consider `Cc1ccsc1/C=C1\C(=O)Nc2nc(C)c(O)c(C)c21`, for which the inhibition at 30 µM in series [1] stood at 59%; in series [2], 47.3%.
In the same order, the values of `COc1cc(/C=C2\C(=O)Nc3nc(C)c(O)c(C)c32)cc(OC)c1OC` are 41.2% and 40.7%.
On to `Cc1nc2c(c(C)c1O)/C(=C/c1ccoc1)C(=O)N2`, for which the inhibition at 30 µM in [1] stood at 66.3%; in [2] it was 26.2%. In addition, the IC50 was 22.9 µM in series [3]; greater than 90 µM in [4]; greater than 90 µM in series [5]; 22.9 µM in [6]; 31.5 µM in [7]; greater than 90 µM in [8]. Also, the IC50 in series [9] was greater than 100 µM. The IC50 at 48 h in [10] and in [11] was greater than 90 µM throughout.
`Cc1nc2c(c(C)c1O)/C(=C/c1ccc(Cl)cc1)C(=O)N2`: the inhibition at 30 µM in [1] came out at 51.7%; in [2] it was 45%.
In the same order, the values of `COc1ccccc1/C=C1\C(=O)Nc2nc(C)c(O)c(C)c21` are 30.7% and 10.2%.
In the same order, the values of `Cc1nc2c(c(C)c1O)/C(=C/c1cccc3[nH]ccc13)C(=O)N2` are 14.5% and 32.3%.
